Test results published in the supplement of paper PMC10307832.

Columns and labels:
Test in all cases: relative viability (nuclei count vs DMSO), 5 days (fraction); higher = more cells survive
AZD8055 + Dasatinib = compound: COc1ccc(-c2ccc3c(N4CCOC[C@@H]4C)nc(N4CCOC[C@@H]4C)nc3n2)cc1CO [AZD8055] + Cc1nc(Nc2ncc(C(=O)Nc3c(C)cccc3Cl)s2)cc(N2CCN(CCO)CC2)n1 [Dasatinib] (partner 0.075 µM)
Summary of the method: (§1)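 Relative viability is defined as nuclei in treated wells over nuclei in vehicle wells. Duplicate plates were run and medians reported. Lung cancer cell lines in 1536-well plates were dosed by pin tool one day after seeding, with one drug or with a fixed anchor-drug dose plus five library-drug doses (not always all listed) in √10 steps, and nuclei were counted after 5 days.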

AZD8055 + Pemetrexed = compound: COc1ccc(-c2ccc3c(N4CCOC[C@@H]4C)nc(N4CCOC[C@@H]4C)nc3n2)cc1CO [AZD8055] + Nc1nc2[nH]cc(CCc3ccc(C(=O)N[C@@H](CCC(=O)O)C(=O)O)cc3)c2c(=O)[nH]1 [Pemetrexed] (partner 0.2 µM)
Summary of the method: as §1

AZD8055 + Palbociclib = compound: COc1ccc(-c2ccc3c(N4CCOC[C@@H]4C)nc(N4CCOC[C@@H]4C)nc3n2)cc1CO [AZD8055] + CC(=O)c1c(C)c2cnc(Nc3ccc(N4CCNCC4)cn3)nc2n(C2CCCC2)c1=O [Palbociclib] (partner 0.5 µM)
Summary of the method: as §1

AZD8055 + Vorinostat = compound: COc1ccc(-c2ccc3c(N4CCOC[C@@H]4C)nc(N4CCOC[C@@H]4C)nc3n2)cc1CO [AZD8055] + O=C(CCCCCCC(=O)Nc1ccccc1)NO [Vorinostat] (partner 1 µM)
Summary of the method: as §1

Cell Line | relative viability (AZD8055 + Dasatinib; first compound 0.01 µM) | relative viability (AZD8055 + Dasatinib; first compound 0.03162 µM) | relative viability (AZD8055 + Dasatinib; first compound 0.1 µM) | relative viability (AZD8055 + Dasatinib; first compound 0.3162 µM) | relative viability (AZD8055 + Dasatinib; first compound 1 µM) | relative viability (AZD8055 + Pemetrexed; first compound 0.01 µM) | relative viability (AZD8055 + Pemetrexed; first compound 0.03162 µM) | relative viability (AZD8055 + Pemetrexed; first compound 0.1 µM) | relative viability (AZD8055 + Pemetrexed; first compound 0.3162 µM) | relative viability (AZD8055 + Pemetrexed; first compound 1 µM) | relative viability (AZD8055 + Palbociclib; first compound 0.01 µM) | relative viability (AZD8055 + Palbociclib; first compound 0.03162 µM) | relative viability (AZD8055 + Palbociclib; first compound 0.1 µM) | relative viability (AZD8055 + Palbociclib; first compound 0.3162 µM) | relative viability (AZD8055 + Palbociclib; first compound 1 µM) | relative viability (AZD8055 + Vorinostat; first compound 0.01 µM) | relative viability (AZD8055 + Vorinostat; first compound 0.03162 µM) | relative viability (AZD8055 + Vorinostat; first compound 0.1 µM) | relative viability (AZD8055 + Vorinostat; first compound 0.3162 µM) | relative viability (AZD8055 + Vorinostat; first compound 1 µM)
PC-3 [JPC-3] | 1.01 | 0.937 | 0.946 | 0.641 | 0.444 | 1.17 | 1.09 | 0.877 | 0.622 | 0.454 | 0.515 | 0.557 | 0.516 | 0.435 | 0.458 | 0.849 | 0.902 | 0.631 | 0.534 | 0.495
PC-14 | 0.319 | 0.309 | 0.199 | 0.0815 | 0.0639 | 0.153 | 0.214 | 0.178 | 0.212 | 0.162 | 0.698 | 0.589 | 0.255 | 0.108 | 0.12 | 0.78 | 0.606 | 0.586 | 0.201 | 0.125
RERF-LC-KJ | 0.946 | 0.753 | 0.607 | 0.284 | 0.343 | 0.51 | 0.499 | 0.428 | 0.396 | 0.373 | 1.11 | 1.09 | 0.779 | 0.441 | 0.412 | 0.819 | 0.665 | 0.575 | 0.446 | 0.384
SK-LU-1 | 0.163 | 0.161 | 0.136 | 0.113 | 0.121 | 1.09 | 0.874 | 0.69 | 0.444 | 0.371 | 0.401 | 0.32 | 0.288 | 0.299 | 0.261 | 0.745 | 0.701 | 0.605 | 0.393 | 0.292
SK-MES-1 | 0.404 | 0.337 | 0.256 | 0.213 | 0.179 | 0.947 | 0.892 | 0.833 | 0.408 | 0.326 | 0.284 | 0.247 | 0.24 | 0.228 | 0.249 | 1.06 | 0.958 | 0.962 | 0.427 | 0.314
SW 900 | 0.622 | 0.691 | 0.535 | 0.177 | 0.184 | 0.493 | 0.469 | 0.512 | 0.353 | 0.241 | 0.546 | 0.559 | 0.474 | 0.261 | 0.289 | 0.461 | 0.499 | 0.538 | 0.325 | 0.265
SW 1573 | 0.583 | 0.534 | 0.262 | 0.114 | 0.103 | 0.938 | 0.728 | 0.653 | 0.285 | 0.18 | 0.342 | 0.324 | 0.159 | 0.145 | 0.133 | 0.791 | 0.452 | 0.773 | 0.21 | 0.199
UMC-11 | 0.521 | 0.381 | 0.302 | 0.252 | 0.224 | 0.76 | 0.629 | 0.525 | 0.302 | 0.264 | 0.341 | 0.32 | 0.299 | 0.295 | 0.288 | 0.453 | 0.282 | 0.258 | 0.233 | 0.21
